The values below come from a melting point compilation (Tetko et al.; mined from patent text by program, amines drawn as free bases though some values may be those of a salt).

A value given as a limit tells only on which side of the number the result lay.

A word on the melting point: it is the temperature of the solid-liquid transition. The compound `O=C(Nc1ccc2c(c1)OCCO2)c1ccc2cc(Br)ccc2c1` gave a melting point of 223 °C.

Take `CC(=O)c1c[nH]c2cc(O)ccc12`: the melting point fell in the range of 135 to 140 °C. Then `CCOC(=O)CC(=Cn1cc[nH]c1=O)c1ccc(OC)c(OC2CCCC2)c1`, with 164 °C.

`O=C(CC(F)(F)F)Nc1c(C(=O)c2ccccc2)[nH]c2cc(Cl)ccc12`: the melting point fell in the range of 201 to 204 °C. To `COc1ccc(-c2nc(-c3ccc4oc(=O)[nH]c4c3)cs2)cc1OC` belongs 271 to 272 °C. To `O=[N+]([O-])c1cc2c(cc1C=Cc1ccccn1)OCO2` belongs 167 to 170 °C; to `CCCCCCCCOc1ccc(-c2cnc(-c3ccc(O)c(F)c3F)nc2)cn1`, 130 to 132 °C; to `Cc1ccc(C2c3c(C)c(N4CCN(C)CC4)c(C)c(C)c3OC2(C)C)cc1` (stereo not drawn), 188 to 190 °C. The compound `COc1cc(C(=O)N2CC3CC(C2)CN(C(C)C)C3)cc(OC)c1OC` returned a melting point of 67.5 to 69.5 °C. Then `CCCCc1nnc(-c2ccc([N+](=O)[O-])cc2)o1`, with 68 to 70 °C. To `Clc1ccc2c(c1)N=C(N1CCN(C3CC3)CC1)c1ccccc1N2` belongs 196 to 199 °C; to `CN1CCN(C2=Nc3ccccc3N3CCCc4cc(Br)cc2c43)CC1`, 181 to 183 °C.

Consider `CCCCCCCCc1ccc(C(O)CC(CO)(CO)NC(C)=O)cc1` (stereo not drawn), for which the melting point was in the range of 118 to 119 °C.

For the compound `Cn1cnc(COc2nn3c(-c4ccccc4F)nnc3cc2C2(C)CCC(F)(F)CC2)n1`, the melting point is 193 °C. Then `CSc1nn2c(N)ncnc2c1S(=O)(=O)c1ccccc1`, with more than 280 °C; and `CCOC(=O)CSc1nc(N)cc(Cl)n1`, with 113 to 116 °C; and `CC(=O)C(Cc1cc(Cl)cc(Cl)c1)C(C)=O`, with 85 to 87 °C.

Consider `CC(C)(C)C(=O)OCCn1nc(-c2cc(C(C)(C)C)c(O)c(C(C)(C)C)c2)c2cccnc21`, for which the melting point is 85 to 87 °C. Then `O=c1c2ccccc2cc(Br)c2ccncc12`, with 167 to 169 °C; and `O=C1CCC(CCO)(c2ccc(F)c(F)c2)CN1Cc1ccccc1` (stereo not drawn), with 153 to 154 °C. Take `N#Cc1ccccc1OC[C@H]1CO1`: the melting point was 84 to 86 °C. Then `CCOC(=O)C=C(C)Nc1ccccc1N`, with 73 to 81 °C; and `O=C(CCCCOc1ccc(-c2ccccc2)cc1)NO`, with 152 to 154 °C. Then `Cn1c(=O)n(Cc2ccccc2)c(=O)c2cc(C(=O)NCc3ccc4c(c3)OCO4)ccc21`, with 215 °C; and `O=C(O)c1ccccc1C(=O)NNC(=S)Nc1ccccc1`, with 149 to 151 °C; and `NC(=O)C1CCCc2ccc(-c3ccccc3)nc21` (stereo not drawn), with 145 °C. To `Cc1cc(C)c2c(c1)C(NC(=O)c1conc1C)CCC2` (stereo not drawn) belongs 57 to 58 °C; to `O=C(Nc1ccc(Cl)cc1)c1ccccc1Cl`, 93.7 to 95.1 °C; to `CCOC(=O)c1c(C)cc2nc(CO)n(-c3ccc(OC)c(OC)c3)c(=O)c2c1C`, 181 to 182 °C. The compound `Brc1ccc2nc(COc3ccc(CCCn4ccnc4)cc3)cn2c1` came in with a melting point of 103 to 104 °C.

The compound `COc1ccccc1Cc1ccc2nc(N)nc(N)c2c1` had a melting point of 214 to 215 °C. `CC(C)(O)c1ccc(-c2ccc(C(C)(C)O)cc2)cc1` yielded a melting point of 161 °C. Then `CCOC(=O)CN1CCC(=C2c3ccc(Cl)cc3CCc3cccnc32)CC1`, with 80 to 82 °C; and `CCOC(=O)c1cn(-c2nccs2)c2nc(Cl)cc(NCc3ccccc3)c2c1=O`, with 141 to 143 °C; and `Cc1nc(Cl)c([N+](=O)[O-])c(NCCOCCNC(=O)OC(C)(C)C)c1C`, with 70 to 73 °C.

`N#Cc1cc(Cl)[nH]c1-c1oc2ccccc2c1Cl` gave a melting point of 224 to 226 °C.

With `NC(=O)CC(O)CCCCCNC(=O)OCc1ccccc1` (stereo not drawn), the melting point lay within 100 to 101 °C. Then `Oc1cc2ccc(Br)cc2cc1C12CC3CC(CC(C3)C1)C2`, with 215 to 216 °C. Then `CCN(CC)c1ccc(/C=C/c2cc(/C=C/c3ccc4cc[nH]c4c3)[nH]n2)c(OCc2ccccc2)c1`, with 78.1 to 80 °C; and `Cn1nc(-c2ccncc2)c(-c2ccc(Cl)cc2)c1N`, with 257 to 258 °C; and `CCOC(=O)CSc1nc2cc([N+](=O)[O-])ccc2[nH]1`, with 114 °C.

In turn, `O=S(=O)(c1nc2c3ccccc3c3ccccc3c2[nH]1)C(F)(F)C(F)F` registered a melting point of 254 to 256 °C.

On to `C=C(c1ccc(Cl)cc1)C1(n2ccnc2)CC1`, for which the melting point is 94 to 95 °C. Then `COc1c2occc2cc2cc(C(=O)O)c(=O)oc12`, with 227 to 228 °C. `COC(=O)NNc1n[nH]c2cc(Cl)ccc12`: the melting point is 223 to 224 °C. With `CCOC(=O)c1ccc(C=C(CCCc2ccc(C(=O)O)cc2)Cn2ccnc2)cc1`, the melting point was 167 to 170 °C. Then `N#Cc1ccc2c(c1)Nc1ccc(Cl)cc1S2`, with 235 °C; and `CCOC(=O)c1c(-c2ccccc2C)c2cc3c(cc2n(C)c1=O)CCC3`, with 134 to 135 °C. Then `Oc1ccc(CCc2cc(O)cc(O)c2)cc1`, with 160 to 161 °C; and `CC(C)C(=O)Oc1c(-c2ccc(-c3ccccc3)cc2)nc2ccc(F)cc2c1C(=O)O`, with 201 to 204 °C; and `c1ccc(N2CCN(c3nsc4nc5ccccc5n34)CC2)nc1`, with 176 to 178 °C. For the compound `CCOC(=O)c1cn(C2CC2)c2nc(N3CC(C)C(N)C3)c(F)cc2c1=O` (stereo not drawn), the melting point lay within 148 to 150 °C.

Compound `Clc1cn2ccnc2c(Br)n1` returned a melting point of 146 to 147 °C. To `COc1cc(-n2cnc3cc(-c4ccc(Cl)cc4)sc3c2=O)ccc1OCCN1CCCC1` belongs 214 to 215 °C. Then `O=c1ccn(Cc2ccccc2)c(=O)[nH]1`, with 168 to 170 °C; and `O=C(O)Cc1ccccc1OCc1cn(-c2ccc(C(F)(F)F)cn2)nc1C1CCCCC1`, with 131 to 132 °C. `CNc1ncnc2c1ncn2C1CC(F)C(CO)O1` (stereo not drawn): the melting point lay within 100 to 103 °C. With `COC(=O)c1cnc2c(c1)CCCCC2`, the melting point lay in the range of 129 to 131 °C. Then `NC(=O)CNC(=O)C1(N2CCCC2=O)CC1`, with 180 °C.

`Cc1ncn(Nc2ccc(F)cc2)c1-c1ccccc1` returned a melting point of 155 °C. To `OC(Cn1cncn1)(c1ccc(Cl)cc1)C(Cl)(Cl)C(Cl)Cl` (stereo not drawn) belongs 168 to 169 °C; to `CC(=O)NCc1ccc2ccn(C3CCN(CCCCc4ccc(F)cc4)CC3)c2c1`, 59 to 60 °C.

For `O=C(O)c1ccc(CCCC2SCC(=O)N2CCC2(O)C3CCCC2CCC3)cc1` (stereo not drawn), the melting point was 176 to 178 °C. To `Cc1cc(C)cc(N(CCCC(N)=O)Cc2ccc3nc(NCCCN4CCOCC4)n(Cc4cccc(Br)n4)c3c2)c1` belongs 82 °C. Then `CCN(CC)S(=O)(=O)c1ccc(Oc2ccc([N+](=O)[O-])cc2C#N)cc1`, with 163 to 164 °C; and `Fc1ccc2[nH]cc(C3=CCN(CC4COc5ccc6ncncc6c5O4)CC3)c2c1` (stereo not drawn), with 233 to 235 °C. Take `CC(C)(C)c1cc(OCC(=O)O)cc(C(C)(C)C)c1O`: the melting point lay within 172 to 173 °C. To `CCOC(=O)C(C#N)(Cc1ccc(OC)c(OC)c1)C(OCC)OCC` (stereo not drawn) belongs 62 to 65 °C; to `Cc1ccnc(C(=O)c2[nH]c3cc(Cl)ccc3c2NC(=O)CCl)c1`, 224 to 225 °C. `CCc1noc(-c2cn(-c3cccc(OCCc4ccccc4)c3)cn2)n1` came in with a melting point of 124 to 125 °C. The compound `O=P(c1ccccc1)(c1ccccc1)C(O)c1c(Cl)cccc1Cl` (stereo not drawn) displayed a melting point of 205 to 209 °C. Then `CC(NC(=O)Cc1cc(F)cc(F)c1)C(=O)NC1CCCCCNC(=O)C1` (stereo not drawn), with more than 220 °C.

As to `CCc1nc(OC)c(NC(=O)N2CCN(c3cc(C)cc(C)c3)CC2)cc1C`, the melting point was in the range of 135 to 136 °C. To `O=C(NCC(O)C(=O)O)c1cc2cc(Cl)ccc2[nH]1` (racemic) belongs 214 to 215 °C; to `OCc1c(F)c(F)c(Br)c(F)c1F`, 60 to 62 °C. Then `OCc1ccc(C23CNCC2C3)cc1` (stereo not drawn), with 80 to 82 °C; and `CC(C)n1nc(-c2c(NCc3ccccn3)nc(N)nc2-c2ccc(F)cc2)ccc1=O`, with 210 to 212 °C; and `Cc1cc(=O)n2nc(S(=O)(=O)Cc3ccc(Cl)cc3)sc2n1`, with 192 to 194 °C.

Turning to `N#Cc1nc(Cl)sc1Cl`, the melting point was 56.5 to 57 °C. To `O=C(CCNC(=O)n1cc(F)c(=O)[nH]c1=O)N1CCOCC1` belongs 178 to 180 °C; to `COc1ccc(OCc2ccc(=O)n(Cc3ccc(Cl)cc3)c2)cc1`, 114 °C; to `CCOC(=O)c1cn2c3c(ccc(OC)c3c1=O)OCC2C` (stereo not drawn), 165 to 168 °C. Then `CCOc1ccc(-c2nc(-c3ccc(OCC(=O)OC)c(C(=O)OC)c3)cs2)cc1OCC`, with 96 to 97 °C; and `COC(C)=CC(=O)NC1CCCCC1`, with 109 °C; and `CC(C)(C)[S@](=O)N1CCC[C@@H]1c1ccc(O)cc1`, with 150 °C. Then `CS(=O)(=O)c1cccnc1S(C)(=O)=O`, with 175 to 176 °C.

As for `CCCC1=C(C(=O)OCC)C(c2cccc3nonc23)c2c[nH]nc2N1` (stereo not drawn), the melting point amounted to 207 °C. To `Cn1c(CO)nc2ccc(-c3ccccc3)nc21` belongs 174 to 177 °C; to `NS(=O)(=O)c1ccc(-c2noc(-c3cnn4c(C(F)F)cc(-c5ccc(C(F)(F)F)cc5)nc34)n2)cc1`, 283 °C; to `Cc1cc(-c2nc3cccnn3c2-c2ccnc(NC(=O)c3ccc(N(C)C)cc3)c2)ccc1F`, 245 to 246 °C.

Compound `Cn1nc(N)nc1NCCCCOc1cccc(CN2CCCCC2)c1` returned a melting point of 82 to 82.5 °C. `COc1ccc2[nH]c3ccccc3c2c1` returned a melting point of 148 to 150 °C. Then `CCCCCCCCC/C=C(\C)C(=O)O`, with 28 to 31 °C.
